Results as given in patent publication US8247211B2, “Glycopeptide antibiotics” (American Cyanamid Company, priority 2001, dated 2012).
Converted amounts (≈) assume the structure as drawn.

How the values were obtained:
Test in all cases: In vitro antibacterial evaluation: minimum inhibitory concentration (MIC), broth dilution method
Assay type in all cases: cell-based
Conditions in all cases: broth dilution, 18 hours at 35° C.
Enterococcus sp. = tested on: Enterococcus sp.
Outline: (§1)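 Susceptibility determined by NCCLS-recommended broth dilution (M7-A2), Muller-Hinton II […]. Concentration span 64-0.06 μg/mL, inoculum 5×10^5 CFU/mL. Isolates include strains resistant to methicillin, penicillin and/or vancomycin.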

Staphylococcus sp. = tested on: Staphylococcus sp.
Outline: as §1

Streptococcus sp. = tested on: Streptococcus sp.
Outline: as §1

Escherichia coli = tested on: Escherichia coli

SMILES: CC(c1ccccc1)C1NC(=O)CNC(=O)C(CO)NC(=O)C(CC2CNC(=N)N2C2OC(CO)C(O)C(O)C2O)NC(=O)C(CC2CNC(=N)N2)NC(=O)C(Cc2ccc3oc(-c4ccc5c(c4)Cc4ccccc4-5)nc3c2)NC1=O (stereo not drawn) [Example 42, Cyclo[3-[2-(9H-fluoren-2-yl)-1,3-benzoxazol-5-yl]alanyl-3-(2-iminoimidazolidin-4-yl)alanyl-3-(3-hexopyranosyl-2-iminoimidazolidin-4-yl)alanylserylglycyl-β-methylphenylalanyl]]
- MIC Enterococcus avium (GC 4558) (Enterococcus sp.; Enterococcus avium (GC 4558)): 4 µg/mL (≈ 3.55 µM)
- MIC Enterococcus faecalis (ATCC 29212) (Enterococcus sp.; Enterococcus faecalis (ATCC 29212)): 8 µg/mL (≈ 7.09 µM)
- MIC Enterococcus faecalis (GC 2242) (Enterococcus sp.; Enterococcus faecalis (GC 2242)): 8 µg/mL (≈ 7.09 µM)
- MIC Enterococcus faecalis (GC 2691) (Enterococcus sp.; Enterococcus faecalis (GC 2691)): 8 µg/mL (≈ 7.09 µM)
- MIC Enterococcus faecalis (GC 3059) (Enterococcus sp.; Enterococcus faecalis (GC 3059)): 16 µg/mL (≈ 14.2 µM)
- MIC Enterococcus faecalis (GC 4552) (Enterococcus sp.; Enterococcus faecalis (GC 4552)): 8 µg/mL (≈ 7.09 µM)
- MIC Enterococcus faecalis (GC 4553) (Enterococcus sp.; Enterococcus faecalis (GC 4553)): 8 µg/mL (≈ 7.09 µM)
- MIC Enterococcus faecalis (GC 4554) (Enterococcus sp.; Enterococcus faecalis (GC 4554)): 8 µg/mL (≈ 7.09 µM)
- MIC Enterococcus faecalis (GC 6189) (Enterococcus sp.; Enterococcus faecalis (GC 6189)): 8 µg/mL (≈ 7.09 µM)
- MIC Enterococcus faecium (GC 2243) (Enterococcus sp.; Enterococcus faecium (GC 2243)): 4 µg/mL (≈ 3.55 µM)
- MIC Enterococcus faecium (GC 4556) (Enterococcus sp.; Enterococcus faecium (GC 4556)): 16 µg/mL (≈ 14.2 µM)
- MIC Enterococcus faecium (GC 4557) (Enterococcus sp.; Enterococcus faecium (GC 4557)): 2 µg/mL (≈ 1.77 µM)
- MIC Enterococcus avium (GC 4558) (Enterococcus sp.): 4 µg/mL (≈ 3.55 µM)
- MIC Enterococcus faecalis (ATCC 29212) (Enterococcus sp.): 8 µg/mL (≈ 7.09 µM)
- MIC Enterococcus faecalis (GC 2242) (Enterococcus sp.): 8 µg/mL (≈ 7.09 µM)
- MIC Enterococcus faecalis (GC 2691) (Enterococcus sp.): 8 µg/mL (≈ 7.09 µM)
- MIC Enterococcus faecalis (GC 3059) (Enterococcus sp.): 16 µg/mL (≈ 14.2 µM)
- MIC Enterococcus faecalis (GC 4552) (Enterococcus sp.): 8 µg/mL (≈ 7.09 µM)
- MIC Enterococcus faecalis (GC 4553) (Enterococcus sp.): 8 µg/mL (≈ 7.09 µM)
- MIC Enterococcus faecalis (GC 4554) (Enterococcus sp.): 8 µg/mL (≈ 7.09 µM)
- MIC Enterococcus faecalis (GC 6189) (Enterococcus sp.): 8 µg/mL (≈ 7.09 µM)
- MIC Enterococcus faecium (GC 2243) (Enterococcus sp.): 4 µg/mL (≈ 3.55 µM)
- MIC Enterococcus faecium (GC 4556) (Enterococcus sp.): 16 µg/mL (≈ 14.2 µM)
- MIC Enterococcus faecium (GC 4557) (Enterococcus sp.): 2 µg/mL (≈ 1.77 µM)
- MIC Coagulase Negative Staphylococcus (GC 4547) (Staphylococcus sp.): 2 µg/mL (≈ 1.77 µM)
- MIC Coagulase Negative Staphylococcus (GC 4548) (Staphylococcus sp.): 1 µg/mL (≈ 0.886 µM)
- MIC Coagulase Negative Staphylococcus (GC 4549) (Staphylococcus sp.): 1 µg/mL (≈ 0.886 µM)
- MIC Coagulase Negative Staphylococcus (GC 4551) (Staphylococcus sp.): 4 µg/mL (≈ 3.55 µM)
- MIC Coagulase Negative Staphylococcus (GC 6257) (Staphylococcus sp.): 1 µg/mL (≈ 0.886 µM)
- MIC Staphylococcus aureus SMITH (GC 4543) (Staphylococcus sp.): 2 µg/mL (≈ 1.77 µM)
- MIC Staphylococcus haemolyticus (GC 4546) (Staphylococcus sp.): 2 µg/mL (≈ 1.77 µM)
- MIC Staphylococcus aureus-SMITH (GC 4543) (Staphylococcus sp.; strain SMITH GC 4543): 2 µg/mL (≈ 1.77 µM)
- MIC Streptococcus agalactiae (GC 4564) (Streptococcus sp.; Streptococcus agalactiae (GC 4564)): 8 µg/mL (≈ 7.09 µM)
- MIC Streptococcus pneumoniae (ATCC 6301) (Streptococcus sp.; Streptococcus pneumoniae (ATCC 6301)): 8 µg/mL (≈ 7.09 µM)
- MIC Streptococcus pneumoniae (GC 1894) (Streptococcus sp.; Streptococcus pneumoniae (GC 1894)): 16 µg/mL (≈ 14.2 µM)
- MIC Streptococcus pneumoniae (GC 4565) (Streptococcus sp.; Streptococcus pneumoniae (GC 4565)): 16 µg/mL (≈ 14.2 µM)
- MIC Streptococcus pyogenes (GC 4563) (Streptococcus sp.; Streptococcus pyogenes (GC 4563)): 4 µg/mL (≈ 3.55 µM)
- MIC Streptococcus agalactiae (GC 4564) (Streptococcus sp.): 8 µg/mL (≈ 7.09 µM)
- MIC Streptococcus pneumoniae (ATCC 6301) (Streptococcus sp.): 8 µg/mL (≈ 7.09 µM)
- MIC Streptococcus pneumoniae (GC 1894) (Streptococcus sp.): 16 µg/mL (≈ 14.2 µM)
- MIC Streptococcus pneumoniae (GC 4565) (Streptococcus sp.): 16 µg/mL (≈ 14.2 µM)
- MIC Streptococcus pyogenes (GC 4563) (Streptococcus sp.): 4 µg/mL (≈ 3.55 µM)
- MIC Escherichia coli (ATCC 25922) (Escherichia coli): 32 µg/mL (≈ 28.4 µM)
- MIC Escherichia coli (GC 4559) (Escherichia coli): 32 µg/mL (≈ 28.4 µM)
- MIC Escherichia coli (GC 4560) (Escherichia coli): 1 µg/mL (≈ 0.886 µM)
